Reference: publication PMC9080739 (2018)

Key:
[1] = test system: telo21 (DNA, G4) GGGTTAGGGTTAGGGTTAGGG; assay: fluorescence titration; settings: K+ 60 mM; 10 mM Tris-HCl pH 7.4; ligand 5 μM
[2] = test system: ds26 (DNA, duplex) CAATCGGATCGAATTCGATCCGATTG; assay: fluorescence enhancement; settings: K+ 60 mM; Tris-HCl pH 7.4; ligand 5 μM
[3] = test system: dA21 (DNA, single strand) AAAAAAAAAAAAAAAAAAAAA; assay: fluorescence enhancement; settings: K+ 60 mM; Tris-HCl pH 7.4; ligand 5 μM

Row | K [1] | binding [2] | binding [3] | SMILES
1 | 1.18 ± 0.21 × 10^5 M^-1 | – | – | CSc1ccc(/C=C/c2cccc(/C=C/c3ccc(SC)cc3)[n+]2C)cc1
2 | 1.44 ± 0.35 × 10^5 M^-1 | weak | weak | CN(C)c1ccc(/C=C/c2cccc(/C=C/c3ccc(N(C)C)cc3)[n+]2C)cc1
